Test results published in publication PMC11487561 (ACS Chemical Neuroscience, 2024).

Key:
human M2 = human M2 (Homo sapiens, UniProt P08172); test: Calcium mobilization assay, muscarinic selectivity; type: cell-based
In vivo dog iv/po PK = test: In vivo dog iv/po PK
Description: Intravenous pharmacokinetics and plasma-brain level determination (IV PK PBL) VU6016235 […]
For dog PK, VU6016235 was formulated in 10% (2-Hydroxypropyl)-beta-cyclodextrin (HPbCD) at a concentration of 0.5 mg/ml and administered as a single dose of 0.5 mg/kg to male beagles (1 ml/kg, n=3).
Blood samples were collected serially from a surgically implanted carotid artery catheter in each animal over multiple post-administration time points (0.033, 0.117, 0.25, 0.5, 1, 2, 4, 7, and 24 hours) into chilled, K2EDTA anticoagulant-fortified tubes and immediately placed on wet ice. […]
over multiple post-administration time points (0.25, 0.5, 1, 2, 4, 7, and 24 hours) into chilled, K2EDTA anticoagulant-fortified tubes and immediately placed on wet ice. The blood samples were then centrifuged (1700 rcf, 5 minutes, 4 °C) in order to obtain plasma samples, which were stored at -80 °C until analysis […]
Samples preparation for bioanalysis
Plasma samples from the in-life phase of the study were thawed at ambient temperature (benchtop), and then aliquots (20 µL per sample) were transferred to a 96-shallow-well (V-bottom) plate. Matrix-matched quality control (QC) samples and a standard curve of […] (1 mg/mL DMSO stock solution) were prepared in blank rat plasma (K2EDTA-treated) or blank brain homogenate via serial dilution and transferred (20 µL each) to the plate along with multiple blank plasma and brain homogenate samples. Acetonitrile (120 µL) containing IS (10 nM carbamazepine) was added to each well of the plate to precipitate protein. The plate was then centrifuged (4000 rcf, 5 minutes, ambient temperature), and resulting supernatants (60 µL each) were transferred to a new 96-shallow-well (V-bottom) plate containing an equal volume (60 µL per well) of water (Milli-Q purified). […]
The plasma standard curve and QCs were used for compounds quantitation in brain.
Binding in plasma from rat and human.
Determination of compounds’ fraction unbound (f u) in plasma from rat and human was conducted in vitro via equilibrium dialysis using HTDialysis membrane plates. Dialysis membranes (four paired strips per HTD assay) were hydrated as described by the manufacturer and inserted into the HTD plate, which was assembled and prepared for sample addition by the dispensing of blank buffer (DPBS, 100 µL/well) into the ‘top half’ of each membrane-split well. Each compound was diluted into plasma from each species (5 µM final concentration), which was aliquoted in triplicate to the ‘bottom half’ of the prepared HTD plate wells. The HTD plate was sealed and incubated for 6 hours at 37 °C. Following incubation, each well (both top and bottom halves) were transferred (20 µL) to the corresponding wells of a 96-shallow-well (V-bottom) plate. The daughter plates were then matrix-matched (buffer side wells received equal volume of plasma, and plasma side wells received equal volume of buffer), and extraction solution (120 µL; acetonitrile containing 50 nM carbamazepine as IS) was added to all wells of both daughter plates to precipitate protein and extract test article. The plates were then sealed and centrifuged (3500 rcf) for 10 minutes at ambient temperature. Supernatant (60 µL) from each well of the daughter plates was then transferred to the corresponding wells of new daughter plates (96-shallow-well, V bottom) containing water (Milli-Q, 60 µL/well), and the plates were sealed in preparation for LC-MS/MS analysis (see below). fu was calculated as (analyte to IS MS peak area ratio from Trans-buffer side) / (analyte to IS MS peak area ratio from Cis-plasma side). Mean values for each species were calculated from 3 replicates.

hCav1.2 = biological target: T1, hCav1.2 (Homo sapiens, UniProt Q13936); test: Cardiac Ion Channel Panel – Charles River (QPatch HT patch clamp); type: cell-based
T1 construct: Charles River Laboratories
Description: (§1) page 17: Table S3. Cardiac Ion Channel Panel - Charles River Laboratories for VU6016235 Ion Channel Concentration Mean % Standard Standard n (μM) Inhibition Deviation Error hCav1.2 10 13.9 8.9 5.1 3 hCav3.2 10 6.7 2.7 1.4 4 hHCN2 10 2.6 1.9 1.1 3 hERG 10 10.9 0.9 0.4 4 hKv1.5 10 1.3 1.8 0.9 4 […] 10 4.1 5.6 2.8 4 hKv1.3 10 9 2.9 1.7 3 hNav1.5 (Tonic) 10 5.8 0.6 0.4 3 […] (Phasic) The in vitro effects of VU6016235 were evaluated at room temperature using the QPatch HT® (Sophion Bioscience A/S, Denmark), an automatic parallel patch clamp system. VU6016235 was evaluated at a concentration of 10 μM and tested in at least 3 cells (n ≥ 3). The duration of exposure to each test article concentration was at least 5 minutes. Rat Amphetamine-Induced Hyperlocomotion (AHL) Protocol Male Harlan Sprague Dawley rats with a mean body weight of 240 g (range 221-264 g) were tested in SmartFrame Open Field locomotor activity test chambers to automatically record locomotor activity. All […] for an additional 30 min with either vehicle or a dose of VU6016235 or the comparator M 4 PAM […] Next, rats were injected subcutaneously with vehicle or a dose of 0.75 mg/kg amphetamine and then monitored for an additional 60 min. Changes in locomotor activity were recorded for a total of 120 min. Locomotor data were expressed as the number of photobeam breaks/5 min intervals across the 120-min test session or as the total ambulation, calculated as sum of photobeam beam breaks from the time of amphetamine administration (60 min) until the end of the study (120 min). Time course data were analyzed by two-way ANOVA with main effects of treatment and time; changes in total ambulation were analyzed by one-way ANOVA followed by Dunnett's post hoc test (GraphPad Prism 7 [GraphPad Software, San Diego, CA]). For all tests, α ≤ 0.05 was considered to represent statistical significance. Finally, percent reversal data were calculated in Microsoft Excel using the following formula: Percent Reversal = 100 - {[(total ambulation in individual animal from t = 60 to t = 120) / (mean total ambulation S17

hERG = biological target: T2, hERG (Homo sapiens, UniProt Q12809); test: as above; type: cell-based
T2 construct: Charles River Laboratories
Description: as §1

hKv1.3 = biological target: T3, hKv1.3 (Homo sapiens, UniProt P22001); test: as above; type: cell-based
T3 construct: Charles River Laboratories
Description: as §1

hNav1.5 (Phasic) = biological target: T4, hNav1.5 (Phasic) (Homo sapiens, UniProt Q14524); test: as above; type: cell-based
T4 construct: Charles River Laboratories
Description: as §1

Phorbol Ester = test: Lead Profiling Screen – Eurofins Panlabs; type: binding, mouse
[1] = biological target: Serotonin (5-Hydroxytryptamine) 5-HT3 (Homo sapiens, UniProt P46098); test: Lead Profiling Screen – Eurofins Panlabs; type: binding; settings: read-out: % inh at 10 μM
[2] = male, plasma, dog (beagle), iv 0.5 mg/kg
[3] = male, plasma, dog (beagle), po 1.0 mg/kg, fasted

Chain of human M2 (P08172 whole entry): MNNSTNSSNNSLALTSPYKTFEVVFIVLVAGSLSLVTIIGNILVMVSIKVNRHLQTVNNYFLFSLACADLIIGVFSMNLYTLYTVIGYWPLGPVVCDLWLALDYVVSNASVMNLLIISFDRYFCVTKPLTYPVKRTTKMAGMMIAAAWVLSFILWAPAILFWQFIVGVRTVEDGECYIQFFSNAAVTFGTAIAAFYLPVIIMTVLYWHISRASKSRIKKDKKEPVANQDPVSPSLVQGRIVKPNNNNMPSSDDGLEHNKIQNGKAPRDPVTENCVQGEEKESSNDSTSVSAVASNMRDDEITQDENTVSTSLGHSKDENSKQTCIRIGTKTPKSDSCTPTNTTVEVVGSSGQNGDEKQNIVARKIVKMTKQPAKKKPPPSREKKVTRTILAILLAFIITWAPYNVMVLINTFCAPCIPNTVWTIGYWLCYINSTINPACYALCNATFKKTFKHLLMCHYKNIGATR
T2 sequence (Q12809 whole entry): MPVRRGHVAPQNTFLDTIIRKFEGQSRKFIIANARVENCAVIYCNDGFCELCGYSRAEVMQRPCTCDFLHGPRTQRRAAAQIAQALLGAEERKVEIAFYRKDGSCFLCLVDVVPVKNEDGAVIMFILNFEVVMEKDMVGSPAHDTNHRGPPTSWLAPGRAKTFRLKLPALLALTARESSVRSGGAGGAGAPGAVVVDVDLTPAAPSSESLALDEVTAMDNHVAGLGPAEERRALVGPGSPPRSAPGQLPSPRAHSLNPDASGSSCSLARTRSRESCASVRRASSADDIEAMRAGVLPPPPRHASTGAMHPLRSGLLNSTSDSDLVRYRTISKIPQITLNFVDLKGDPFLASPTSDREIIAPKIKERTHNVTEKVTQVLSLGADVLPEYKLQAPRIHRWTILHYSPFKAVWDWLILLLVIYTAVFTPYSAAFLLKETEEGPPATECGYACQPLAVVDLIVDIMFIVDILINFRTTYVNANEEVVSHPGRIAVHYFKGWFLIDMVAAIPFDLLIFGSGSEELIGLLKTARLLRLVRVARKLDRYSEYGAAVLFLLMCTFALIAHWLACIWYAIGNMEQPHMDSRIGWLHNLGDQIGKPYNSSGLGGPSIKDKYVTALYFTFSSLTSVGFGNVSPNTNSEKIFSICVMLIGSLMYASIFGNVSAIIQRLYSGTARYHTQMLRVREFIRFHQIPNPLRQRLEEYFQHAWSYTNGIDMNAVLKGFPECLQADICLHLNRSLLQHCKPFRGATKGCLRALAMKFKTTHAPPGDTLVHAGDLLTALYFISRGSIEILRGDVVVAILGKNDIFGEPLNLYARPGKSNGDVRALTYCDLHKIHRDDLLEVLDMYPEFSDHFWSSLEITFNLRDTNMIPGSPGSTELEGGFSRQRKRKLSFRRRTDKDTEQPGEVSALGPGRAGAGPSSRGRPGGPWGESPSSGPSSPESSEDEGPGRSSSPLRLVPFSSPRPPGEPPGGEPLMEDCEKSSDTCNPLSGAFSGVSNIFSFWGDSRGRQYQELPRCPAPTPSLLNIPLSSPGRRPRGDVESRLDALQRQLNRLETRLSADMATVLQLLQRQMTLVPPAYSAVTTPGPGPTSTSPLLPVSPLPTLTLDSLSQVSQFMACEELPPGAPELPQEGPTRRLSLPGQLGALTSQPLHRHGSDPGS
T4 sequence (Q14524 whole entry): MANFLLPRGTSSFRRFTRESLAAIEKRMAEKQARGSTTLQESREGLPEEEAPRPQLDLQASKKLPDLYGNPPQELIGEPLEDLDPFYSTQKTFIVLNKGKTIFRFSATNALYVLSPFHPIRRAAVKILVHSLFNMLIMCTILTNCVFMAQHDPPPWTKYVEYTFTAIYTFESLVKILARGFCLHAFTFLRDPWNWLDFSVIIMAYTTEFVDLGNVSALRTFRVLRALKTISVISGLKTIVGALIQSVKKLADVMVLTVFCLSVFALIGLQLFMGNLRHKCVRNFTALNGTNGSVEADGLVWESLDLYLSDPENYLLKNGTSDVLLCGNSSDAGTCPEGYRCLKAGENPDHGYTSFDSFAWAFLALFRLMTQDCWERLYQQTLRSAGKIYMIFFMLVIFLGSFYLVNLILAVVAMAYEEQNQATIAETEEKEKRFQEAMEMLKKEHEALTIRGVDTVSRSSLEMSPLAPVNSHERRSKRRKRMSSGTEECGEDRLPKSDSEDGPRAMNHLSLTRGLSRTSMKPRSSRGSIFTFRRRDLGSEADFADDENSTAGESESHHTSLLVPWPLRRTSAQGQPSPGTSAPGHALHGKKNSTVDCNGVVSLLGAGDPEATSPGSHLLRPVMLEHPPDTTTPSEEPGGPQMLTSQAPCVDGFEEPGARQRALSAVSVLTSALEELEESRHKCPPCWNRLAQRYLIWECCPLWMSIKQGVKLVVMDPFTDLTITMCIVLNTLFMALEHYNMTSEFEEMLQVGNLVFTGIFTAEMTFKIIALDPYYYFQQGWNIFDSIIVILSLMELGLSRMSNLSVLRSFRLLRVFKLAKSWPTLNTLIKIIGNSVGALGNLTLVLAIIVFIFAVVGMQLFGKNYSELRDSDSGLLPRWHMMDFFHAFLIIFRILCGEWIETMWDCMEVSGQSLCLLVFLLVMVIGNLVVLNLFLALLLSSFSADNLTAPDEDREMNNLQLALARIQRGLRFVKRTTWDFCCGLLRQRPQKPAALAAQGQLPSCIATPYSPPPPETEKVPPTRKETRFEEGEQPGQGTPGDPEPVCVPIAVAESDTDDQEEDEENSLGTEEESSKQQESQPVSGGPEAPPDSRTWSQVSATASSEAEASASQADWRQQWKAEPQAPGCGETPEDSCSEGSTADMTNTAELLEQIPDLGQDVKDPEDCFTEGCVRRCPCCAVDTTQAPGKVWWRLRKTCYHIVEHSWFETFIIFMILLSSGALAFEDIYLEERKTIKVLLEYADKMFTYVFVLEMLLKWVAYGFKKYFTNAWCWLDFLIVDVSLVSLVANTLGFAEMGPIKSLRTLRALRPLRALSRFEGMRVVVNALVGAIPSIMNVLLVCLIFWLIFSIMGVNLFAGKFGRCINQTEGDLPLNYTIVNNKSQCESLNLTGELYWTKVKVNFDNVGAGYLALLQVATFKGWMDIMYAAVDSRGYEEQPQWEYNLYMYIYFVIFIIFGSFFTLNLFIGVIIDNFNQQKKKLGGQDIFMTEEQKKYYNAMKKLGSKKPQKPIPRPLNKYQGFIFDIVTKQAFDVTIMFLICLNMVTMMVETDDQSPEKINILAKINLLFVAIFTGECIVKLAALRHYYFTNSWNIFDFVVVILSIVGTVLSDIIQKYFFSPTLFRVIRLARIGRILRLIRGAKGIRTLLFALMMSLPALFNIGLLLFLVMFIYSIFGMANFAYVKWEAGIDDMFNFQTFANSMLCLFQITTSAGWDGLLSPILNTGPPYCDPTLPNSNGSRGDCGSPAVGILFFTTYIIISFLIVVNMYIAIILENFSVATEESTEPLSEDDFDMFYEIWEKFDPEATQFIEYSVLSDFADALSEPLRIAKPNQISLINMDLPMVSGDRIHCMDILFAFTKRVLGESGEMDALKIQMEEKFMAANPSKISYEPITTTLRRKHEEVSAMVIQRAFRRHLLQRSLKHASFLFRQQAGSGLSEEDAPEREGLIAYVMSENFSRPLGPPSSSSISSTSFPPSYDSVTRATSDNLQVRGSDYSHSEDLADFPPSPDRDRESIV
Chain of Serotonin (5-Hydroxytryptamine) 5-HT3 (P46098 24-478): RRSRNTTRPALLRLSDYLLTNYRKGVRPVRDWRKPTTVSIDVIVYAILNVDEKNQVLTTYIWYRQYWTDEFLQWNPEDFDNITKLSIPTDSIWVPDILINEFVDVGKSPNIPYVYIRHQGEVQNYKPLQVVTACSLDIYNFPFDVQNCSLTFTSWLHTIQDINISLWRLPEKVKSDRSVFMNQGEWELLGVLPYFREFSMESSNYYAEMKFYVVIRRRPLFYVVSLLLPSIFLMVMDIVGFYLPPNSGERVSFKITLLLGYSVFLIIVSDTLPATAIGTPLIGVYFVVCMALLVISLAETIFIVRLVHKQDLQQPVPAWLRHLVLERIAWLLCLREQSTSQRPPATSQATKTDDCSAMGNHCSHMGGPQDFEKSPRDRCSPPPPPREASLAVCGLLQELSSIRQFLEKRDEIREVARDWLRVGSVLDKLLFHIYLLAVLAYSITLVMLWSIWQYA
T3 sequence (P22001 whole entry): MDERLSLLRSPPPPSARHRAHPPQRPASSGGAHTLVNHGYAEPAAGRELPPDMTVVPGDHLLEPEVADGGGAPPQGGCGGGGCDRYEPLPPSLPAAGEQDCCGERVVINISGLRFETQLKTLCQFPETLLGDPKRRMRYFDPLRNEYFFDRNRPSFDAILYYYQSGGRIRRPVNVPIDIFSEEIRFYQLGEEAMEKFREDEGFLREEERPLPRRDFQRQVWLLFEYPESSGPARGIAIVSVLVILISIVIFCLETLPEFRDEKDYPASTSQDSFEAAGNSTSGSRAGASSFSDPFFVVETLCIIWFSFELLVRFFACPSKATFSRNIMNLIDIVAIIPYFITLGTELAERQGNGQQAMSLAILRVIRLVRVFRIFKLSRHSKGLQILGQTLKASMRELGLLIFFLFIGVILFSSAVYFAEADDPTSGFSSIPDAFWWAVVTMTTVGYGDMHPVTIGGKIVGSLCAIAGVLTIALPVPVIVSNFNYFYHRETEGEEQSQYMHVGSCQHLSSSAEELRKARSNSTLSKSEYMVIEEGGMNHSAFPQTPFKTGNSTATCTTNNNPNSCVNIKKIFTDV

Cc1nc(C)c2c(n1)sc1c(NCc3ccc(C(C)(C)O)cc3)nccc12 [22g]
EC50 (human M2): 6.2 µM | human M2 %Ach Max (human M2): [46] %Ach Max | plasma clearance as % hepatic blood flow (In vivo dog iv/po PK; dog): ~78 % hepatic blood flow | CLp (In vivo dog iv/po PK; dog (beagle), iv 0.5 mg/kg, listed as VU6016235, 0.5 mg/kg): 23.8 mL/min/kg | clearance (In vivo dog iv/po PK; male, beagle, dog, plasma, iv, 0.5 mg/kg, dog (beagle), iv 0.5 mg/kg, read-out: CLp): ~24 mL/min/kg | MRT (In vivo dog iv/po PK; [2]): 1.6 h | half-life (In vivo dog iv/po PK; [2]): 2.4 h | Vd (In vivo dog iv/po PK; male, plasma, dog (beagle), iv 0.5 mg/kg, read-out: Vss): 2.3 L/kg | AUC(0-inf) (In vivo dog iv/po PK; [3]): 200 ng·h/mL | Cmax (In vivo dog iv/po PK; [3]): 62.4 ng/mL | Tmax (In vivo dog iv/po PK; [3]): 0.83 h | bioavailability (In vivo dog iv/po PK; [3]): 27.5% | inhibition at 10 µM (hCav1.2): 13.9% | inhibition at 10 µM (hERG): 10.9% | inhibition at 10 µM (hKv1.3): 9% | inhibition at 10 µM (hNav1.5 (Phasic)): 6.9% | % inh at 10 μM (Phorbol Ester): -1% | inhibition at 10 µM [1]: -20%
